In ChEMBL document CHEMBL5230138, “Design, synthesis, and antiviral activity of a series of CD4-mimetic small-molecule HIV-1 entry inhibitors” (Bioorg Med Chem, 2021):
pIC50: −log10 of the molar value.

Legend:
[1] = tested on: Human immunodeficiency virus 1; experiment: Antiviral activity against HIV1 Env pseudotype from the lab-adapted CXCR4-tropic HIV-1 HXB-2 infected in human TZM-bl cells preincubated for 30 min followed by viral infection and measured after 3 days by luciferase-based single-cycle infection assay; type: functional, organism-based; details: for pIC50: Human immunodeficiency virus 1, HXB-2, TZM-bl, read-out: IC50; for IC50: tzm-bl
TZM = experiment: (§1) Cytotoxicity against human TZM-bl cells assessed as reduction in cell viability incubated for 3 days by MTS assay; type: toxicity, cell-based; details: tzm, 72 h, time 3 day
[2] = Selectivity index, ratio of CC50 for HIV1 human TZM-bl cells to EC50 for HIV1 ENV pseudotype from the lab-adapted CXCR4-tropic HIV-1 HXB-2 infected in human TZM-bl cells; type: toxicity, cell-based; details: for selectivity ratio: TZM-bl cells, read-out: Selectivity Index
[3] = as §1; type: toxicity, cell-based; details: TZM-bl cells, time 3 day
[4] = tested on: Human immunodeficiency virus 1; experiment: microbe, parasite or virus in culture; details: Human immunodeficiency virus 1, HXB-2 subtype A, U87.CD4.CXCR4, 72 h

Structure (SMILES)	pIC50 [1]	CC50 (TZM; read-out: CC50) [µM]	selectivity ratio [2]	further results
NC[C@@H](NC(=O)c1ccc(-c2ccc(C(F)(F)F)cc2C(F)(F)F)[nH]1)c1nc(CO)cs1	5.20	37.6	5.9	
NC[C@@H](NC(=O)c1ccc(-c2ccc(C(F)(F)F)cc2F)[nH]1)c1nc(CO)cs1	6.21	26.8	43.9	
Cc1cc(-c2ccc(C(F)(F)F)c(F)c2)[nH]c1C(=O)N[C@H](CN)c1nc(CO)cs1	6.24	14.1	20.6	
Cc1cc(-c2ccc(C(F)(F)F)c(F)c2)[nH]c1C(=O)N[C@H](CN)c1ncc(CO)s1	6.68	10.4		
COC(=O)c1csc([C@@H](CN)NC(=O)c2ccc(-c3ccc(C(F)(F)F)c(F)c3)[nH]2)n1	5.31	23.4	4.8	
NC[C@@H](NC(=O)c1ccc(-c2ccc(C(F)(F)F)cc2F)[nH]1)c1nc(CCO)cs1		23.4		
NC[C@@H](NC(=O)c1ccc(-c2ccc(C(F)(F)F)c(F)c2)[nH]1)c1nc(C(=O)O)cs1				IC50 [1]: Not Determined(Insoluble); CC50 (TZM): Not Determined(Insoluble); Selectivity Index [2]: Not Determined(Insoluble)
NC[C@@H](NC(=O)c1ccc(-c2cc(F)c(Cl)c(F)c2)[nH]1)c1nc(CCO)cs1	6.01	32.8	33.5	
NC[C@H](NC(=O)c1ccc(-c2ccc(C(F)(F)F)cc2)[nH]1)c1ncc(COCC(O)CO)s1 (some centres not stated)	< 4.89	> 61.9		Selectivity Index [2]: Not Determined(Insoluble)
CC(CN)(NC(=O)c1ccc(-c2ccc(C(F)(F)F)c(F)c2)[nH]1)c1nc(CO)cs1 (racemic)	5.80	45.3	28	
NC[C@@H](NC(=O)c1ccc(-c2ccc(C(F)(F)F)c(F)c2)[nH]1)c1nc(CCCO)cs1	5.46	38	10.8	
CC(C)(N)[C@H](NC(=O)c1ccc(-c2cc(F)c(Cl)c(F)c2)[nH]1)c1nc(CO)cs1	6.92	16	105	
NC[C@@H](NC(=O)c1ccc(-c2ccc(C(F)(F)F)c(F)c2)[nH]1)c1ncc(C(O)CO)s1 (some centres not stated)	6.23	70.5	119	
NC[C@H](NC(=O)c1ccc(-c2ccc(C(F)(F)F)cc2C(F)(F)F)[nH]1)c1nc(CO)cs1	5.38	33.4	7.9	
NC[C@@H](NC(=O)c1ccc(-c2ccc(C(F)(F)F)c(F)c2)[nH]1)c1nc(CCO)cs1	6.29	24.2	47.4	
CC(C)(N)[C@H](NC(=O)c1ccc(-c2ccc(C(F)(F)F)cc2)[nH]1)c1ncc(CO)s1	6.64	25.1	109	
NC[C@H](NC(=O)c1ccc(-c2ccc(C(F)(F)F)c(F)c2)[nH]1)c1ncc(C(O)CO)s1 (some centres not stated)	5.21	98	15.8	
NC[C@H](NC(=O)c1ccc(-c2ccc(C(F)(F)F)cc2F)[nH]1)c1nc(CO)cs1	6.73	25.7	137	
NC[C@H](NC(=O)c1ccc(-c2cc(F)c(Cl)c(F)c2)[nH]1)c1nc(CCO)cs1	6.82		218	
NC[C@H](NC(=O)c1ccc(-c2ccc(C(F)(F)F)c(F)c2)[nH]1)c1nc(C(N)=O)cs1	< 5.00	> 52	34.2	

Structure (SMILES)	pIC50 [1]	CC50 (TZM; read-out: CC50) [µM]	selectivity ratio [2]	further results
NC[C@@H](NC(=O)c1ccc(-c2ccc(C(F)(F)F)cc2)[nH]1)c1ncc(COCC(O)CO)s1 (some centres not stated)	5.68		38	CC50 at 72 h [3]: 80 µM
NC[C@@H](NC(=O)c1ccc(-c2ccc(C(F)(F)F)c(F)c2)[nH]1)c1nc(C(N)=O)cs1	5.64	25.9	11.3	
CC(CN)(NC(=O)c1ccc(-c2cc(F)c(Cl)c(F)c2)[nH]1)c1nc(CO)cs1 (racemic)	5.59	47.7	18.3	
CC(C)(N)[C@@H](NC(=O)c1ccc(-c2ccc(C(F)(F)F)cc2)[nH]1)c1ncc(CO)s1	6.17	23.1	34	
N#Cc1ccc(-c2ccc(C(=O)N[C@@H](CN)c3nc(CO)cs3)[nH]2)cc1	< 4.80			Selectivity Index [2]: Not Determined(Insoluble)
COC(=O)c1csc([C@H](CN)NC(=O)c2ccc(-c3ccc(C(F)(F)F)c(F)c3)[nH]2)n1	5.54	41.6	14.3	
CC(C)(N)[C@H](NC(=O)c1ccc(-c2ccc(C(F)(F)F)cc2)[nH]1)c1nc(CO)cs1	6.89	17.5		
Cc1cc(-c2ccc(C(F)(F)F)c(F)c2)[nH]c1C(=O)N[C@@H](CN)c1ncc(CO)s1	6.82	10.3	49.5	
NC[C@H](NC(=O)c1ccc(-c2ccc(C(F)(F)F)cc2F)[nH]1)c1nc(CCO)cs1		39.6		
NC[C@H](NC(=O)c1ccc(-c2ccc(C(F)(F)F)c(F)c2)[nH]1)c1nc(C(O)CO)cs1 (some centres not stated)	6.26	72.4	132	
CC(C)(N)[C@@H](NC(=O)c1ccc(-c2cc(F)c(Cl)c(F)c2)[nH]1)c1nc(CO)cs1	6.82	15.8	135	
NC[C@@H](NC(=O)c1ccc(-c2ccc(C(F)(F)F)cc2)[nH]1)c1ncc(CO)s1				pIC50 [4]: 6.96
NC[C@H](NC(=O)c1ccc(-c2ccc(C(F)(F)F)c(F)c2)[nH]1)c1nc(CCCO)cs1	6.60	22.6	90.4	
N#Cc1ccc(-c2ccc(C(=O)N[C@H](CN)c3nc(CO)cs3)[nH]2)cc1	< 4.80	> 82		Selectivity Index [2]: Not Determined(Insoluble)
NC[C@H](NC(=O)c1ccc(-c2ccc(C(F)(F)F)c(F)c2)[nH]1)c1nc(CCO)cs1	6.70	24.4	122	
CC(C)(N)[C@@H](NC(=O)c1ccc(-c2ccc(C(F)(F)F)cc2)[nH]1)c1nc(CO)cs1	5.89	19.9	15.3	
NC[C@@H](NC(=O)c1ccc(-c2ccc(C(F)(F)F)c(F)c2)[nH]1)c1nc(C(O)CO)cs1 (some centres not stated)	5.62	56.3	23.4	
Cc1cc(-c2ccc(C(F)(F)F)c(F)c2)[nH]c1C(=O)N[C@@H](CN)c1nc(CO)cs1	6.27	18.5	24.7	
NC[C@H](NC(=O)c1ccc(-c2ccc(C(F)(F)F)c(F)c2)[nH]1)c1nc(C(=O)O)cs1				IC50 [1]: Not Determined(Insoluble); CC50 (TZM): Not Determined(Insoluble); Selectivity Index [2]: Not Determined(Insoluble)
